Measurements: PubChem BioAssay AID256 (DTP/NCI, 2004)
Inconclusive results and toxic doses are left out.

System: CD2F1 mice, L1210 leukemia ip, survival T/C
Assay: NCI In Vivo Anticancer Drug Screen. Data for tumor model L1210 Leukemia (intraperitoneal) in CD2F1 (CDF1) mice
Details: endpoint: mean survival time, higher = longer survival
Outline: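 Implant tumor; dose compound or vehicle; measure endpoint in both groups; report treated divided by control.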

[1] = dose: 100.0 mg/kg/injection, schedule: Q01DX001 (ip), vehicle: saline
[2] = dose: 200.0 mg/kg/injection, schedule: Q01DX001 (ip), vehicle: saline
[3] = dose: 400.0 mg/kg/injection, schedule: Q01DX001 (ip), vehicle: saline
[4] = dose: 100.0 mg/kg/injection, schedule: Q04DX002 (ip), vehicle: saline with Tween-80
[5] = dose: 200.0 mg/kg/injection, schedule: Q04DX002 (ip), vehicle: saline with Tween-80
[6] = dose: 400.0 mg/kg/injection, schedule: Q04DX002 (ip), vehicle: saline with Tween-80
[7] = dose: 100.0 mg/kg/injection, schedule: Q01DX009 (ip), vehicle: saline
[8] = dose: 100.0 mg/kg/injection, schedule: Q04DX003 (ip), vehicle: saline
[9] = dose: 200.0 mg/kg/injection, schedule: Q01DX009 (ip), vehicle: saline
[10] = dose: 100.0 mg/kg/injection, schedule: Q01DX001 (ip), vehicle: saline with Tween-80
[11] = dose: 400.0 mg/kg/injection, schedule: Q01DX001 (ip), vehicle: saline with Tween-80
[12] = dose: 50.0 mg/kg/injection, schedule: Q01DX009 (ip), vehicle: saline with Tween-80
[13] = dose: 100.0 mg/kg/injection, schedule: Q01DX009 (ip), vehicle: saline with Tween-80
[14] = dose: 200.0 mg/kg/injection, schedule: Q01DX009 (ip), vehicle: saline with Tween-80
[15] = dose: 50.0 mg/kg/injection, schedule: Q01DX009 (ip), vehicle: saline

Q: `O=C(O)c1cc(C(=O)O)c(-c2ccccc2)c(-c2ccccc2)c1` was tested. Which T/C [1] did it give?
A: 97 % of control

Q: And the T/C [2]?
A: 97 % of control

Q: What about the T/C [3] of the same compound?
A: 101 % of control

Q: How did the T/C (dose: 100.0 mg/kg/injection, schedule: Q04DX003 (ip), vehicle: saline sonified) turn out when `Cc1cc(Cc2c(C)c(C)c(Cc3cc(C)cc(C(C)(C)C)c3O)c(C)c2C)c(O)c(C(C)(C)C)c1` was run?
A: 90 % of control

Q: What about the T/C (dose: 200.0 mg/kg/injection, schedule: Q04DX003 (ip), vehicle: saline sonified) of the same compound?
A: 88 % of control

Q: And the T/C (dose: 400.0 mg/kg/injection, schedule: Q04DX003 (ip), vehicle: saline sonified)?
A: 93 % of control

Q: What does the source list for `OC(CCc1ccccc1)(C(F)(F)Cl)C(F)(F)Cl`?
A: T/C (dose: 100.0 mg/kg/injection, schedule: Q04DX003 (ip), vehicle: saline with Tween-80): 98 % of control; T/C (dose: 200.0 mg/kg/injection, schedule: Q04DX003 (ip), vehicle: saline with Tween-80): 89 % of control; T/C (dose: 400.0 mg/kg/injection, schedule: Q04DX003 (ip), vehicle: saline with Tween-80): 92 % of control

Q: How did the T/C (dose: 6.25 mg/kg/injection, schedule: Q01DX009 (ip), vehicle: saline) turn out when `COC1OC(COC(C)=O)C(OC(C)=O)C(OC(C)=O)[CH]1[Hg][O]C(C)=O` (stereo not given) was run?
A: 106 % of control

Q: And the T/C (dose: 12.5 mg/kg/injection, schedule: Q01DX009 (ip), vehicle: saline)?
A: 108 % of control

Q: And the T/C (dose: 25.0 mg/kg/injection, schedule: Q01DX009 (ip), vehicle: saline)?
A: 97 % of control

Q: Which T/C (dose: 50.0 mg/kg/injection, schedule: Q04DX002 (ip), vehicle: saline) does the source give for `CN1CC(=O)n2c(cc3ccccc32)C1=O` here?
A: 101 % of control

Q: What about the T/C (dose: 100.0 mg/kg/injection, schedule: Q04DX002 (ip), vehicle: saline) of the same compound?
A: 86 % of control

Q: And the T/C (dose: 200.0 mg/kg/injection, schedule: Q04DX002 (ip), vehicle: saline)?
A: 93 % of control

Q: And the T/C (dose: 400.0 mg/kg/injection, schedule: Q04DX002 (ip), vehicle: saline)?
A: 101 % of control

Q: What does the source list for `CCN(CC)C(=S)Nc1ccc(Cl)cc1`?
A: T/C [4]: 102 % of control; T/C [5]: 102 % of control; T/C [6]: 102 % of control

Q: `CCCCN(CCCC)CCNc1ccc(C)c2sc3ccccc3c(=O)c12` was tested. Which T/C (dose: 50.0 mg/kg/injection, schedule: Q01DX001 (ip), vehicle: saline) did it give?
A: 91 % of control

Q: What about the T/C [1] of the same compound?
A: 88 % of control

Q: And the T/C [7]?
A: 101 % of control

Q: What about the T/C [8] of the same compound?
A: 91 % of control

Q: What about the T/C [2] of the same compound?
A: 91 % of control

Q: And the T/C [9]?
A: 91 % of control

Q: What about the T/C [3] of the same compound?
A: 88 % of control

Q: What about the T/C (dose: 400.0 mg/kg/injection, schedule: Q01DX009 (ip), vehicle: saline) of the same compound?
A: 94 % of control

Q: And the T/C (dose: 400.0 mg/kg/injection, schedule: Q04DX003 (ip), vehicle: saline)?
A: 87 % of control

Q: How did the T/C (dose: 5.0 mg/kg/injection, schedule: Q01DX001 (ip), vehicle: saline) turn out when `Nc1nc(N)c2cc(CNc3ccc(C(=O)NC(CC(=O)O)C(=O)O)c(Cl)c3)ccc2n1` (stereo not given) was run?
A: 160 % of control

Q: How did the T/C [10] turn out when `COc1cc(NC(=O)O/N=C/c2ccccn2)cc(OC)c1OC` was run?
A: 95 % of control

Q: And the T/C [11]?
A: 92 % of control

Q: With `CC(=O)Nc1nc(Br)c2ccccc2c1-c1ccc(N(CCOS(C)(=O)=O)CCOS(C)(=O)=O)cc1` as the compound, how does the T/C (dose: 12.5 mg/kg/injection, schedule: Q04DX003 (ip), vehicle: DMSO) read?
A: 105 % of control

Q: And the T/C (dose: 25.0 mg/kg/injection, schedule: Q04DX003 (ip), vehicle: DMSO)?
A: 105 % of control

Q: What about the T/C (dose: 50.0 mg/kg/injection, schedule: Q04DX003 (ip), vehicle: DMSO) of the same compound?
A: 110 % of control

Q: And the T/C (dose: 100.0 mg/kg/injection, schedule: Q04DX003 (ip), vehicle: DMSO)?
A: 121 % of control

Q: Which results are given for `N=C(N)c1ccc(OCCCCOc2ccc(NC(=O)Nc3ccc(S(=O)(=O)F)cc3Cl)cc2)cc1`?
A: T/C (dose: 12.5 mg/kg/injection, schedule: Q01DX001 (ip), vehicle: saline with Tween-80): 98 % of control; T/C (dose: 25.0 mg/kg/injection, schedule: Q01DX001 (ip), vehicle: saline with Tween-80): 98 % of control; T/C (dose: 50.0 mg/kg/injection, schedule: Q01DX001 (ip), vehicle: saline with Tween-80): 96 % of control

Q: For `Cc1cc(Cc2cc(C)c(O)c(C)c2)cc(C)c1O`, which T/C [12] is on record?
A: 94 % of control

Q: What about the T/C [13] of the same compound?
A: 100 % of control

Q: And the T/C [14]?
A: 97 % of control

Q: How did the T/C (dose: 12.5 mg/kg/injection, schedule: Q01DX009 (ip), vehicle: saline with Tween-80) turn out when `O=C(CC(=Nc1ccccc1)c1ccccc1)c1ccccc1.O=C(CC(=Nc1ccccc1)c1ccccc1)c1ccccc1.[Cu]` was run?
A: 98 % of control

Q: And the T/C (dose: 25.0 mg/kg/injection, schedule: Q01DX009 (ip), vehicle: saline with Tween-80)?
A: 93 % of control

Q: Which results are given for `O=C(NCCCl)Nc1cccc(Cl)c1`?
A: T/C [10]: 87 % of control; T/C (dose: 200.0 mg/kg/injection, schedule: Q01DX001 (ip), vehicle: saline with Tween-80): 102 % of control; T/C [11]: 90 % of control

Q: For `CC(C)CCCC(C)C1CCC2C3CCC4CC(=O)C=CC4(C)C3CCC12C` (stereo not given), which T/C (dose: 75.0 mg/kg/injection, schedule: Q04DX003 (sc), vehicle: steriod suspending solution) is on record?
A: 100 % of control

Q: And the T/C (dose: 150.0 mg/kg/injection, schedule: Q04DX003 (sc), vehicle: steriod suspending solution)?
A: 101 % of control

Q: And the T/C (dose: 300.0 mg/kg/injection, schedule: Q04DX003 (sc), vehicle: steriod suspending solution)?
A: 101 % of control

Q: With `O=C1c2ccccc2C(=O)N1c1nc2ccccc2s1` as the compound, how does the T/C [4] read?
A: 96 % of control

Q: What about the T/C [5] of the same compound?
A: 89 % of control

Q: What about the T/C [6] of the same compound?
A: 100 % of control

Q: Which results are given for `Cc1ccc(S(=O)(=O)N2CCCCC2)cc1`?
A: T/C [15]: 91 % of control; T/C [7]: 93 % of control; T/C [9]: 93 % of control

Q: How did the T/C (dose: 37.5 mg/kg/injection, schedule: Q04DX003 (ip), vehicle: saline) turn out when `FC1(F)C(Cl)=[C]([Hg][C]2=C(Cl)C(F)(F)C(F)(F)C(F)(F)C2(F)F)C(F)(F)C(F)(F)C1(F)F` was run?
A: 104 % of control

Q: What about the T/C (dose: 75.0 mg/kg/injection, schedule: Q01DX001 (ip), vehicle: saline) of the same compound?
A: 106 % of control

Q: What about the T/C (dose: 75.0 mg/kg/injection, schedule: Q04DX003 (ip), vehicle: saline) of the same compound?
A: 97 % of control

Q: What about the T/C (dose: 150.0 mg/kg/injection, schedule: Q01DX001 (ip), vehicle: saline) of the same compound?
A: 95 % of control

Q: `CCN(CC)c1nc2c(c(=O)n(C)c(=O)n2C)n1CCCNCC(O)c1ccc(O)c(O)c1` (stereo not given) was tested. Which T/C (dose: 12.5 mg/kg/injection, schedule: Q01DX005 (ip), vehicle: distilled water + Tween-80) did it give?
A: 96 % of control

Q: What about the T/C (dose: 25.0 mg/kg/injection, schedule: Q01DX005 (ip), vehicle: distilled water + Tween-80) of the same compound?
A: 103 % of control

Q: And the T/C (dose: 50.0 mg/kg/injection, schedule: Q01DX005 (ip), vehicle: distilled water + Tween-80)?
A: 97 % of control

Q: What about the T/C (dose: 100.0 mg/kg/injection, schedule: Q01DX005 (ip), vehicle: distilled water + Tween-80) of the same compound?
A: 105 % of control

Q: And the T/C (dose: 200.0 mg/kg/injection, schedule: Q01DX005 (ip), vehicle: distilled water + Tween-80)?
A: 100 % of control

Q: What does the source list for `Cc1c(C)c2c(c(C)c1O)CCC(C)(CCCC(C)CCCC(C)CCCC(C)C)O2` (stereo not given)?
A: T/C [13]: 101 % of control; T/C [14]: 95 % of control; T/C (dose: 400.0 mg/kg/injection, schedule: Q01DX009 (ip), vehicle: Klucel (hydroxypropylcellulose) (HPC)): 98 % of control; T/C (dose: 400.0 mg/kg/injection, schedule: Q01DX009 (ip), vehicle: saline with Tween-80): 101 % of control; T/C (dose: 800.0 mg/kg/injection, schedule: Q01DX009 (ip), vehicle: Klucel (hydroxypropylcellulose) (HPC)): 96 % of control; T/C (dose: 1200.0 mg/kg/injection, schedule: Q01DX009 (ip), vehicle: Klucel (hydroxypropylcellulose) (HPC)): 96 % of control; T/C (dose: 1600.0 mg/kg/injection, schedule: Q01DX009 (ip), vehicle: Klucel (hydroxypropylcellulose) (HPC)): 90 % of control

Q: Which results are given for `O=C(O)/C=C/C(=O)Nc1ccccc1[N+](=O)[O-]`?
A: T/C [12]: 102 % of control; T/C [13]: 104 % of control; T/C [14]: 94 % of control

Q: How did the T/C [15] turn out when `CC(=O)NC(C=O)CC(C=O)CO` (stereo not given) was run?
A: 103 % of control

Q: What about the T/C (dose: 50.0 mg/kg/injection, schedule: Q04DX003 (ip), vehicle: saline) of the same compound?
A: 107 % of control

Q: And the T/C [7]?
A: 107 % of control

Q: And the T/C [8]?
A: 109 % of control

Q: And the T/C (dose: 150.0 mg/kg/injection, schedule: Q04DX003 (ip), vehicle: saline)?
A: 108 % of control

Q: What about the T/C [9] of the same compound?
A: 95 % of control
